Common to all, as to format: biochemical
Assay [1] addresses T1, Recombinant Human Anaplastic Lymphoma Kinase (Homo sapiens, UniProt Q9UM73).
T1 construct: purchased Invitrogen, Carlsbad, Calif
Put plainly: ALK HTRF kinase assay. The following applies: for IC50: Table B1, cells without percent sign. The method, boiled down: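 Kinase activity of the recombinant human protein is measured on a biotinylated peptide, with a Eu-W1024 anti-phosphotyrosine antibody and streptavidin-allophycocyanin generating the homogeneous time-resolved fluorescence signal. Inhibition curves are fitted to yield IC50.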
A general note: TR-FRET usually uses a lanthanide donor and a delayed reading to cut background.

For assay [2], the target named is TYK2 (Homo sapiens, UniProt P29597). As to the kind of experiment: TYK2 kinase inhibition (Table A1).
Chain of TYK2 (P29597 whole entry): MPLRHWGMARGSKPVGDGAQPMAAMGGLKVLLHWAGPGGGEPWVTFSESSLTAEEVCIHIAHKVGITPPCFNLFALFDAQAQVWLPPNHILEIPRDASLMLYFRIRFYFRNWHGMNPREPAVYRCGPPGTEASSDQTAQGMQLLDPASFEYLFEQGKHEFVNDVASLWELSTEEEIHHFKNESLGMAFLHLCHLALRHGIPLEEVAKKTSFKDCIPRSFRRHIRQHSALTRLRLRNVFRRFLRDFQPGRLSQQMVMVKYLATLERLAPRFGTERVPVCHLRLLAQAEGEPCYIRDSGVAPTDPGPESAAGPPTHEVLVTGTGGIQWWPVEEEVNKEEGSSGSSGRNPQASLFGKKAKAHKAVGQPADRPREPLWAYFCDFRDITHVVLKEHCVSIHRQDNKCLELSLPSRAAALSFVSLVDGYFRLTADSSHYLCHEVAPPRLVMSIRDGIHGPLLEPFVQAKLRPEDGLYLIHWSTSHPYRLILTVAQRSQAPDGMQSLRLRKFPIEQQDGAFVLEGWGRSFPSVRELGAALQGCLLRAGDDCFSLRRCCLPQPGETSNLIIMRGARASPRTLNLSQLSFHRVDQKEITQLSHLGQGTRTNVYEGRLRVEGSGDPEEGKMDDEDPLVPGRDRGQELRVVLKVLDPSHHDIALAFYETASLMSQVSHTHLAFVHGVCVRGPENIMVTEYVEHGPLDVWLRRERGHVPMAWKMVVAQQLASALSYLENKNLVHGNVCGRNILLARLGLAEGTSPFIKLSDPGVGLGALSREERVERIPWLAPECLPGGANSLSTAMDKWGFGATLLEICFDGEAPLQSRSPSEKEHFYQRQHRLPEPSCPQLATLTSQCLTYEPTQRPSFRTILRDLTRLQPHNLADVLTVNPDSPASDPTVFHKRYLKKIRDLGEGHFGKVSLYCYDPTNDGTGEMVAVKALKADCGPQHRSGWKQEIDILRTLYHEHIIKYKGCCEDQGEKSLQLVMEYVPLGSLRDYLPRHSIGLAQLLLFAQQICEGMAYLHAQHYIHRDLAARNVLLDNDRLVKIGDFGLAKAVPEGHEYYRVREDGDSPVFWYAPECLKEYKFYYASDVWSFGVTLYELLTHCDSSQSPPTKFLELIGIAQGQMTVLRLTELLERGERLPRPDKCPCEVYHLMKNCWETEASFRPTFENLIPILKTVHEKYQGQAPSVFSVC
For assay [3], the target named is T2, human JAK3 (a.a. 781-1124) (Homo sapiens, UniProt P52333).
T2 construct: JAK3 (a.a. 781-1124); His tag (N); made in house; host or cells: insect cells (baculovirus)
T2 sequence (P52333 781-1124): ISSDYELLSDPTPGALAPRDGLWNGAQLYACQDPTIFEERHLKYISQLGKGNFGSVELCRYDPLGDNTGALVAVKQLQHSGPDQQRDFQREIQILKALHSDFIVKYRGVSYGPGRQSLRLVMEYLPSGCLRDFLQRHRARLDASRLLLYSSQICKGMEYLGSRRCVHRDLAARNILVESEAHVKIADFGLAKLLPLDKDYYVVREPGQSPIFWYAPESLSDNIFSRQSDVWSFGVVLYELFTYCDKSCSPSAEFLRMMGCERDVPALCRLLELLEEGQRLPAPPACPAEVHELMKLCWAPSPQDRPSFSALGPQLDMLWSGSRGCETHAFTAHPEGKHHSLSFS
Put plainly: In vitro JAK kinase assay (HTRF, phosphorylation of a biotinylated peptide), JAK3. Summed up: (§1)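 Phosphorylation of a biotinylated peptide by the JAK kinase domain, detected by HTRF with Eu-Py20 and SA-APC. ATP was 90 μM for JAK1, 30 μM for JAK2 and 3 μM for JAK3. Reactions ran 1 h at room temperature and were stopped with EDTA, followed by 40 min antibody binding.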

For assay [4], the target named is T3, human JAK1 (a.a. 837-1142) (Homo sapiens, UniProt P23458).
T3 construct: human JAK1 (a.a. 837-1142); His tag (N); made in house; host or cells: insect cells (baculovirus)
T3 sequence (P23458 849-1154): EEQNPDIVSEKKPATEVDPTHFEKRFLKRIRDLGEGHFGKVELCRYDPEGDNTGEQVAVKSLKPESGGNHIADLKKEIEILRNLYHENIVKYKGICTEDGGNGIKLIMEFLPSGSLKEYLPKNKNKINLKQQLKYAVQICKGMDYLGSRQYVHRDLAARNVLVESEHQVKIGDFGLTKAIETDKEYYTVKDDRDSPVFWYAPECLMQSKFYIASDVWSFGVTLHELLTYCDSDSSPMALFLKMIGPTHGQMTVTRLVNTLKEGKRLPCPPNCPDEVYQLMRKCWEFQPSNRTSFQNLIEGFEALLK
Put plainly: In vitro JAK kinase assay (HTRF, phosphorylation of a biotinylated peptide), JAK1. Conditions: read-out: JAK1 IC50. Summed up: as §1

For assay [5], the target named is T4, human JAK2 (a.a. 828-1132) (Homo sapiens, UniProt O60674).
T4 construct: JAK2 (a.a. 828-1132); His tag (N); made in house; host or cells: insect cells (baculovirus)
T4 sequence (O60674 828-1132): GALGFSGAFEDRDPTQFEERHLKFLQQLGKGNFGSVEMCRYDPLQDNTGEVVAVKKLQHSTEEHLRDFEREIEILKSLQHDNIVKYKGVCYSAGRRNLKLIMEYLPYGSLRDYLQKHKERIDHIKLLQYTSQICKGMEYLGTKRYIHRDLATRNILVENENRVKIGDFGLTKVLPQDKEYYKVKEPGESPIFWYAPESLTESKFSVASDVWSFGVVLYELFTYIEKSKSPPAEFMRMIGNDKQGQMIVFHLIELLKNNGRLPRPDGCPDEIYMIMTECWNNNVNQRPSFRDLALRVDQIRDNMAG
As to the kind of experiment: In vitro JAK kinase assay (HTRF, phosphorylation of a biotinylated peptide), JAK2. Summed up: as §1

[6] abbreviates: compound at 500 nM or 1 mM, 90 μM ATP.
The mark [7] stands for this setting: method AA1 (3 μM ATP) or AA2 (1000 μM ATP), not stated per value.
Where [8] appears, read: method AA1 (90 μM ATP) or AA2 (1000 μM ATP), not stated per value.
Where [9] appears, read: method AA1 (30 μM ATP) or AA2 (1000 μM ATP), not stated per value.
Where [10] appears, read: compound at a concentration of 500 nM or 1 mM (not specified), cells shown as percentage.

Where a name gives a salt, the structure may show the parent alone. Read-outs that look alike come from different tables or passages of the source. Some results are limits rather than exact numbers.

T1 sequence (Q9UM73 19-1620): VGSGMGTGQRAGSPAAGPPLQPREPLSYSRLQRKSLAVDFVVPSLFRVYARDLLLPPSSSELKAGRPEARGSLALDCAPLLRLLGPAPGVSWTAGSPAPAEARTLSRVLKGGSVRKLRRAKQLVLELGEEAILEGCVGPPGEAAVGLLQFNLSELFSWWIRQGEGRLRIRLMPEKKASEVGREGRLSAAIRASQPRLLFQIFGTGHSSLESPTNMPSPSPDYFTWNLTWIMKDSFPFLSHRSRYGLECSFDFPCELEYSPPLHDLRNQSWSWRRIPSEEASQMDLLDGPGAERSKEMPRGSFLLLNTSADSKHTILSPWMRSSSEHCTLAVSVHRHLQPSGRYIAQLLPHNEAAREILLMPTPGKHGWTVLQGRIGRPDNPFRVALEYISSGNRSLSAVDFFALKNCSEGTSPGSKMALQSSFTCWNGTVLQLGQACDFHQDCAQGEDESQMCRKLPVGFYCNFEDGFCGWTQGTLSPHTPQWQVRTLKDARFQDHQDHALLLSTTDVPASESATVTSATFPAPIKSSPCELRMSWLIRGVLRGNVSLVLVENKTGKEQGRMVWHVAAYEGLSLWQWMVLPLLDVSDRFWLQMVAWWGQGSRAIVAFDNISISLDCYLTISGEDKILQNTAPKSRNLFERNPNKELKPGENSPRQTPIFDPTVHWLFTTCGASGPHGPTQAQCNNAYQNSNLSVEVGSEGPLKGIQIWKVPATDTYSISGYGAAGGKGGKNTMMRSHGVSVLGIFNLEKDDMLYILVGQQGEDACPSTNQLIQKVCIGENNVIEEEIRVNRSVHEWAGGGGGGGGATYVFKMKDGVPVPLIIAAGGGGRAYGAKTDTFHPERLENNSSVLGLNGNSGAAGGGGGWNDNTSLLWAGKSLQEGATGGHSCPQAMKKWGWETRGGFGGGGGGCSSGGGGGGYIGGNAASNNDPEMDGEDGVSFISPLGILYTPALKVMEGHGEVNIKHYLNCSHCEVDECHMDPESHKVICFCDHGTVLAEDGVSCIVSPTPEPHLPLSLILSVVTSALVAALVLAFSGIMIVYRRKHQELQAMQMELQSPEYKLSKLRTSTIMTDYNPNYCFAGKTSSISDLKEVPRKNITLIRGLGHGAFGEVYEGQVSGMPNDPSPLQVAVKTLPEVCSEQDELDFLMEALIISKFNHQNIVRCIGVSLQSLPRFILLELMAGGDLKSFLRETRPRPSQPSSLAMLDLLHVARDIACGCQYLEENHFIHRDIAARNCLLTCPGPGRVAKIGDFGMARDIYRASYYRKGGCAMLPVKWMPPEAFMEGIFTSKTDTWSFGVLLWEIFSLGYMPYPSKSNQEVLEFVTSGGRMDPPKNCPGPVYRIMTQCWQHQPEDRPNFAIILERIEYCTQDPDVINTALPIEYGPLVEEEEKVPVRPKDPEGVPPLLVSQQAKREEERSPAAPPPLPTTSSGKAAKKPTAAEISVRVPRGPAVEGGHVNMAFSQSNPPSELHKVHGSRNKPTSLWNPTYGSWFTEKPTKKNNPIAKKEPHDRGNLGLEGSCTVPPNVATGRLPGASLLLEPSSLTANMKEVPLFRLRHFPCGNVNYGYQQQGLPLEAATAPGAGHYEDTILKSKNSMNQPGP

In the case of `O=C(CC1CCN(C(=O)Nc2cccc(F)c2)CC1)Nc1ccc2cc1CCc1cncc(c1)Nc1ncc(Cl)c(n1)N2` [Example A147, 4-(2-{[6-Chloro-2,4,8,18,22-pentaazatetracyclo[14.3.1.1(3,7).1(9,13)]docosa-1(20),3(22),4,6,9(21),10,12,16,18-nonaen-12-yl]amino}-2-oxoethyl)-N-(3-fluorophenyl)piperidine-1-carboxamide bis(trifluoroacetate)], the “ALK % of inhibition at a concentration of 500 nM or 1 mM” value (“ALK % of inhibition” for short) in assay [1] (setting [6]) is 46%. The IC50 is 7.4 nM in assay [2], over 100 nM in assay [3] (setting [7]), 0.3 nM in assay [4] (setting [8]) and 1.9 nM in assay [5] (setting [9]).
`CCC(=O)N1CCC(CC(=O)Nc2ccc3cc2CCc2cccc(c2)Nc2ncc(Cl)c(n2)N3)CC1` [Example A90, N-[6-Chloro-2,4,8,22-tetraazatetracyclo[14.3.1.1(3,7).1(9,13)]docosa-1(20), 3(22),4,6,9(21),10,12,16,18-nonaen-12-yl]-2-(1-propionylpiperidin-4-yl)acetamide trifluoroacetate]: in assay [1] (setting [6]), the “ALK % of inhibition” value is reported as 30%. For the same compound, the 50% inhibitory concentration (IC50) in assay [2] stood at 4.9 nM; in assay [3] (setting [7]), 68 nM; in assay [4] (setting [8]), 4.9 nM; in assay [5] (setting [9]) it was 5.4 nM.
In the case of `CC(C)(C)OC(=O)N1CCN(CCNC(=O)Nc2ccc3cc2CCc2cccc(c2)Nc2ncc(Cl)c(n2)N3)CC1` [Example B259, tert-Butyl 4-{2-[({[6-chloro-2,4,8,22-tetraazatetracyclo[14.3.1.1(3,7).1(9,13)]docosa-1(20),3(22),4,6,9(21),10,12,16,18-nonaen-12-yl]amino}carbonyl)amino]ethyl}piperazine-1-carboxylate], the “ALK % of inhibition” value in assay [1] (setting [10]) was determined as 13%. For the same compound, the IC50 came out at 23 nM in assay [2] (Table B1), 52 nM in assay [3] (Table B1), 3.8 nM in assay [4] (Table B1) and 7 nM in assay [5] (Table B1).
Take `CS(=O)(=O)NCCNC(=O)Nc1ccc2cc1CCc1cccc(c1)Nc1ncc(Cl)c(n1)N2` [Example B187, N-{2-[({[6-Chloro-2,4,8,22-tetraazatetracyclo[14.3.1.1(3,7).1(9,13)]docosa-1(20),3(22),4,6,9(21),10,12,16,18-nonaen-12-yl]amino}carbonyl)amino]ethyl}methanesulfonamide trifluoroacetate]: the “ALK % of inhibition” value in assay [1] (setting [10]) came to 29%. The half-inhibitory concentration (IC50) in assay [2] (Table B1) stood at 1.9 nM; in assay [3] (Table B1) it was 2.4 nM; in assay [4] (Table B1) it was 0.9 nM; in assay [5] (Table B1), 0.4 nM.
`O=C(Nc1ccc2cc1CCc1cccc(c1)Nc1ncc(Cl)c(n1)N2)c1ccccn1` [Example B37, N-[6-Chloro-2,4,8,22-tetraazatetracyclo[14.3.1.1(3,7).1(9,13)]docosa-1(20), 3(22),4,6,9(21),10,12,16,18-nonaen-12-yl]pyridine-2-carboxamide bis(trifluoroacetate)]: the IC50 is over 10000 nM in assay [1]; 21 nM in assay [2] (Table B1); 87 nM in assay [3] (Table B1); 7.6 nM in assay [4] (Table B1); 8.3 nM in assay [5] (Table B1).
`CC(C)NC(=O)N1CCC(CC(=O)Nc2ccc3cc2CCc2cncc(c2)Nc2ncc(Cl)c(n2)N3)CC1` [Example A99, 4-(2-{[6-Chloro-2,4,8,18,22-pentaazatetracyclo[14.3.1.1(3,7).1(9,13)]docosa-1(20),3(22),4,6,9(21),10,12,16,18-nonaen-12-yl]amino}-2-oxoethyl)-N-isopropylpiperidine-1-carboxamide bis(trifluoroacetate)]: the “ALK % of inhibition” value in assay [1] (setting [6]) is 25%. Moreover, the IC50 in assay [2] was 24 nM; in assay [3] (setting [7]), 133 nM; in assay [4] (setting [8]) it was 15 nM; in assay [5] (setting [9]), 24 nM.
Regarding `NS(=O)(=O)Nc1ccc2cc1CCc1cccc(c1)Nc1ncc(Cl)c(n1)N2` [Example B184, N-[6-Chloro-2,4,8,22-tetraazatetracyclo[14.3.1.1(3,7).1(9,13)]docosa-1(20),3(22),4,6,9(21),10,12,16,18-nonaen-12-yl]sulfamide trifluoroacetate], the “ALK % of inhibition” value in assay [1] (setting [10]) was found to be 82%. The IC50 was found to be 0.14 nM in assay [2] (Table B1), 0.1 nM in assay [3] (Table B1), 0.1 nM in assay [4] (Table B1) and 0.1 nM in assay [5] (Table B1).
As to `CCS(=O)(=O)Nc1ccc2cc1CCc1cccc(c1)Nc1ncc(Cl)c(n1)N2` [Example B141, N-[6-Chloro-2,4,8,22-tetraazatetracyclo[14.3.1.1(3,7).1(9,13)]docosa-1(20), 3(22),4,6,9(21),10,12,16,18-nonaen-12-yl]ethanesulfonamide trifluoroacetate], the concentration for half-maximal inhibition (IC50) in assay [1] turned out to be 740 nM; in assay [2] (Table B1), 1.2 nM; in assay [3] (Table B1), 3 nM; in assay [4] (Table B1), 0.8 nM; in assay [5] (Table B1), 0.2 nM.
Turning to `O=C(Nc1ccc2cc1CCc1cncc(c1)Nc1ncc(Cl)c(n1)N2)N1CCN(c2ccccc2)CC1` [Example B292, N-[6-Chloro-2,4,8,18,22-pentaazatetracyclo[14.3.1.1(3,7).1(9,13)]docosa-1(20),3(22),4,6,9(21),10,12,16,18-nonaen-12-yl]-4-phenylpiperazine-1-carboxamide tris(trifluoroacetate)], the “ALK % of inhibition” value in assay [1] (setting [10]) is recorded as 68%. Moreover, the IC50 in assay [2] (Table B1) is 100 nM; in assay [3] (Table B1) it was over 200 nM; in assay [4] (Table B1) it was 32 nM; in assay [5] (Table B1), over 200 nM.
For the compound `O=C(Nc1ccc2cc1CCc1cccc(c1)Nc1ncc(Cl)c(n1)N2)C1CCN(C(=O)c2ccc3c(c2)OCO3)CC1` [Example A31, 1-(1,3-Benzodioxol-5-ylcarbonyl)-N-[6-chloro-2,4,8,22-tetraazatetracyclo[14.3.1.1(3,7).1(9,13)]docosa-1(20),3(22),4,6,9(21),10,12,16,18-nonaen-12-yl]piperidine-4-carboxamide trifluoroacetate], the “ALK % of inhibition” value in assay [1] (setting [6]) worked out at 26%. The IC50 in assay [2] came out at 115 nM; in assay [3] (setting [7]), 108 nM; in assay [4] (setting [8]), 42 nM; in assay [5] (setting [9]), 49 nM.
Consider `Cc1cc(C(=O)N2CCCC(C(=O)Nc3ccc4cc3CCc3cccc(c3)Nc3ncc(Cl)c(n3)N4)C2)no1` (stereo not shown) [Example A121, N-[6-Chloro-2,4,8,22-tetraazatetracyclo[14.3.1.1(3,7).1(9,13)]docosa-1(20),3(22),4,6,9(21),10,12,16,18-nonaen-12-yl]-1-[(5-methylisoxazol-3-yl)carbonyl]piperidine-3-carboxamide trifluoroacetate], for which, in assay [1] (setting [6]), the “ALK % of inhibition” value is 41%. The IC50 in assay [2] was 14 nM; in assay [3] (setting [7]), 11 nM; in assay [4] (setting [8]), 14 nM; in assay [5] (setting [9]) it was 4.2 nM.
Take `O=S(=O)(Nc1ccc2cc1CCc1cccc(c1)Nc1ncc(Cl)c(n1)N2)c1ccc(C(F)(F)F)cc1` [Example B162, N-[6-Chloro-2,4,8,22-tetraazatetracyclo[14.3.1.1(3,7).1(9,13)]docosa-1(20), 3(22),4,6,9(21),10,12,16,18-nonaen-12-yl]-4-(trifluoromethyl)benzenesulfonamide trifluoroacetate]: the “ALK % of inhibition” value in assay [1] (setting [10]) is 16%. The IC50 was found to be 4.3 nM in assay [2] (Table B1), 26 nM in assay [3] (Table B1), 1.7 nM in assay [4] (Table B1) and 2.7 nM in assay [5] (Table B1).
In the case of `N#Cc1cccnc1N1CCC(CC(=O)Nc2ccc3cc2CCc2cncc(c2)Nc2ncc(Cl)c(n2)N3)CC1` [Example A177, N-[6-Chloro-2,4,8,18,22-pentaazatetracyclo[14.3.1.1(3,7).1(9,13)]docosa-1(20),3(22),4,6,9(21),10,12,16,18-nonaen-12-yl]-2-[1-(3-cyanopyridin-2-yl)piperidin-4-yl]acetamide tris(trifluoroacetate)], in assay [1] (setting [6]), the “ALK % of inhibition” value is 34%. Moreover, the IC50 in assay [2] is over 200 nM; in assay [3] (setting [7]), over 200 nM; in assay [4] (setting [8]), 14 nM; in assay [5] (setting [9]), 95 nM.
On to `Cc1noc(C)c1NC(=O)Nc1ccc2cc1CCc1cccc(c1)Nc1ncc(Cl)c(n1)N2` [Example B94, N-[6-Chloro-2,4,8,22-tetraazatetracyclo[14.3.1.1(3,7).1(9,13)]docosa-1(20), 3(22),4,6,9(21),10,12,16,18-nonaen-12-yl]-N′-(3,5-dimethylisoxazol-4-yl)urea trifluoroacetate], for which the IC50 was over 1000 nM in assay [1]; 13 nM in assay [2] (Table B1); 51 nM in assay [3] (Table B1); 3.1 nM in assay [4] (Table B1); 3.8 nM in assay [5] (Table B1).

A word on the IC50: it is the concentration at which inhibition is half-maximal.
